# Where a SMILES comes first, the peptide text is derived from it. Bridges are numbered along the chain shown (N, C = ends). [ ]: non-standard residue; d: D form. The star is where a group is joined. Phe(4-COOH) = N[C@@H](Cc1ccc(C(=O)O)cc1)C(=O)O; Bip = N[C@@H](Cc1ccc(-c2ccccc2)cc1)C(=O)O; Phe(3-OMe) = COc1cccc(C[C@H](N)C(=O)O)c1; Phe(3-F) = N[C@@H](Cc1cccc(F)c1)C(=O)O; Phe(3-Me) = Cc1cccc(C[C@H](N)C(=O)O)c1; Phe(2-F) = N[C@@H](Cc1ccccc1F)C(=O)O; Val(3-OH) = CC(C)(O)[C@H](N)C(=O)O; 4Pal = N[C@@H](Cc1ccncc1)C(=O)O; Cha = N[C@@H](CC1CCCCC1)C(=O)O; Cit = NC(=O)NCCC[C@H](N)C(=O)O; Phg = N[C@H](C(=O)O)c1ccccc1; Carboxymethyl = O=C(O)C*; Orn = NCCC[C@H](N)C(=O)O; Dab = NCC[C@H](N)C(=O)O; Dap = NC[C@H](N)C(=O)O
# Target: T1, human PD-1 / PD-L1-Ig binding on Jurkat cell line over-expressing human PD-1 (Jurkat-PD-1) (Homo sapiens, UniProt Q15116)
# T1 construct: expressed in transfected cells; host or cells: Jurkat
# Assay: Jurkat-PD-1 Cell Binding High-Content Screening Assay (CBA)
# Type: cell-based
# Conditions: Jurkat-PD-1 cells, PE-labeled PD-L1-Ig 20 nM final; read-out: Jurkat HPD1_PDL1 IC50
# Method in brief: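 PE-PD-L1-Ig 20 nM final; cells in DMEM/10% FCS; cpd pre-incubation 2 h, 37° C; ligand 1 h; PFA fix + Hoechst 33342; high-content imaging read-out.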
# T1 sequence (Q15116 25-288): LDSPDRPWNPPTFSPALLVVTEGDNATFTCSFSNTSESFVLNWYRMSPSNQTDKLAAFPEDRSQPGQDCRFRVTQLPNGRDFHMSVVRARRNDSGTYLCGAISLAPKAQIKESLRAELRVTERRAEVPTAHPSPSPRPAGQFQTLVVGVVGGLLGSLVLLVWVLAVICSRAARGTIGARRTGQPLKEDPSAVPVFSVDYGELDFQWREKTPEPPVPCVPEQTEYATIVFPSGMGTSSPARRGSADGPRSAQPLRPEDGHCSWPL
row,IC50,Structure (SMILES)
1,0.0211 µM,CC(C)C[C@H]1NC(=O)[C@H](CCCN)NC(=O)[C@H](CCC(=O)O)NC(=O)[C@H](Cc2ccc(-c3ccccc3)cc2)NC(=O)[C@H](C(C)C)NC(=O)[C@H](Cc2c[nH]c3ccccc23)NC(=O)[C@H](CC(=O)O)NC(=O)[C@H](Cc2ccc(OCC(=O)O)cc2)NC(=O)[C@H](CN)NC(=O)CSC[C@@H](C(=O)N[C@@H](C)C(N)=O)NC(=O)[C@H]([C@@H](C)O)NC(=O)[C@H](C(C)C)NC(=O)[C@H](Cc2cccc(F)c2)NC(=O)[C@H](CCN)NC1=O [Compound 1677] ({CH2CO}-[Dap]Y(Carboxymethyl)DWV[Bip]E[Orn][dL][Dab][Phe(3-F)]VTCA-NH2; thioether N-14)
2,0.016 µM,CC(C)C[C@H]1NC(=O)[C@H](CCCN)NC(=O)[C@H](CCC(=O)O)NC(=O)[C@H](Cc2ccc(-c3ccccc3)cc2)NC(=O)[C@H](C(C)C)NC(=O)[C@H](Cc2c[nH]c3ccccc23)NC(=O)[C@H](CC(=O)O)NC(=O)[C@H](Cc2ccc(N)cc2)NC(=O)[C@H](CN)NC(=O)CSC[C@@H](C(=O)N[C@@H](C)C(N)=O)NC(=O)[C@H]([C@@H](C)O)NC(=O)[C@H](C(C)C)NC(=O)[C@H](CC2CCCCC2)NC(=O)[C@H](CCN)NC1=O [Compound 2182]
3,0.0023 µM,Cc1cccc(C[C@@H]2NC(=O)[C@H](CC(=O)O)NC(=O)[C@H](Cc3ccc(C(=O)O)cc3)NC(=O)[C@H](CCN)NC(=O)CSC[C@@H](C(=O)N[C@@H](CCN)C(N)=O)NC(=O)[C@H](CO)NC(=O)[C@H](C(C)(C)O)NC(=O)[C@H](CC3CCCCC3)NC(=O)[C@H](CCN)NC(=O)[C@@H](CC(C)C)NC(=O)[C@H](CCCN)NC(=O)[C@H](Cc3ccc(C(=O)O)cc3)NC(=O)[C@H](Cc3ccc(-c4ccccc4)cc3)NC(=O)[C@H](Cc3ccc(C(=O)O)cc3)NC2=O)c1 [Example 2709] ({CH2CO}-[Dab][Phe(4-COOH)]D[Phe(3-Me)][Phe(4-COOH)][Bip][Phe(4-COOH)][Orn][dL][Dab][Cha][Val(3-OH)]SC[Dab]-NH2; thioether N-14)
4,0.0297 µM,CC(C)C[C@H]1NC(=O)[C@H](CCCN)NC(=O)[C@H](CCC(=O)O)NC(=O)[C@H](Cc2ccc(-c3ccccc3)cc2)NC(=O)[C@H](C(C)C)NC(=O)[C@H](Cc2ccccc2F)NC(=O)[C@H](CC(=O)O)NC(=O)[C@H](Cc2ccncc2)NC(=O)[C@H](CN)NC(=O)CSC[C@@H](C(=O)N[C@@H](C)C(N)=O)NC(=O)[C@H]([C@@H](C)O)NC(=O)[C@H](C(C)C)NC(=O)[C@H](CC2CCCCC2)NC(=O)[C@H](CCN)NC1=O [Compound 2209] ({CH2CO}-[Dap][4Pal]D[Phe(2-F)]V[Bip]E[Orn][dL][Dab][Cha]VTCA-NH2; thioether N-14)

# The remaining lines, values behind:
row,Structure (SMILES),IC50
1,CC(C)C[C@H]1NC(=O)[C@H](CCCN)NC(=O)[C@H](CCCCN)NC(=O)[C@H](Cc2ccc(-c3ccccc3)cc2)NC(=O)[C@H](C(C)C)NC(=O)[C@H](Cc2c[nH]c3ccccc23)NC(=O)[C@H](CC(=O)O)NC(=O)[C@H](Cc2ccc(C(=O)O)cc2)NC(=O)[C@H](Cc2ccc(OCC(=O)O)cc2)NC(=O)CSC[C@@H](C(=O)N[C@@H](C)C(N)=O)NC(=O)[C@H]([C@@H](C)O)NC(=O)[C@H](C(C)C)NC(=O)[C@H](CC2CCCCC2)NC(=O)[C@H](CCN)NC1=O [Compound 1385] ({CH2CO}-Y(Carboxymethyl)[Phe(4-COOH)]DWV[Bip]K[Orn][dL][Dab][Cha]VTCA-NH2; thioether N-14),0.0061 µM
2,CC(C)C[C@H]1NC(=O)[C@H](CCCN)NC(=O)[C@H](CCC(=O)O)NC(=O)[C@H](Cc2ccc(-c3ccccc3)cc2)NC(=O)[C@H](C(C)C)NC(=O)[C@H](Cc2c[nH]c3ccccc23)NC(=O)[C@H](CC(=O)O)NC(=O)[C@H](Cc2ccc(OCC(=O)O)cc2)NC(=O)[C@H](CN)NC(=O)CSC[C@@H](C(=O)N[C@@H](C)C(N)=O)NC(=O)[C@H]([C@@H](C)O)NC(=O)[C@H](C(C)C)NC(=O)[C@H](Cc2ccccc2)NC(=O)[C@H](CCN)NC1=O [Compound 1666] ({CH2CO}-[Dap]Y(Carboxymethyl)DWV[Bip]E[Orn][dL][Dab]FVTCA-NH2; thioether N-14),0.0173 µM
3,COc1cccc(C[C@@H]2NC(=O)[C@H](CC(=O)O)NC(=O)[C@H](Cc3ccc(OCC(=O)O)cc3)NC(=O)[C@H](Cc3ccccc3)NC(=O)CSC[C@@H](C(=O)N[C@@H](C)C(N)=O)NC(=O)[C@H]([C@@H](C)O)NC(=O)[C@H](C(C)C)NC(=O)[C@H](CC3CCCCC3)NC(=O)[C@H](CCN)NC(=O)[C@@H](CC(C)C)NC(=O)[C@H](CCCN)NC(=O)[C@H](CCC(=O)O)NC(=O)[C@H](Cc3ccc(-c4ccccc4)cc3)NC(=O)[C@H](C(C)C)NC2=O)c1 [Compound 1542] ({CH2CO}-FY(Carboxymethyl)D[Phe(3-OMe)]V[Bip]E[Orn][dL][Dab][Cha]VTCA-NH2; thioether N-14),0.0186 µM
4,Cc1cccc(C[C@@H]2NC(=O)[C@H](CC(=O)O)NC(=O)[C@H](Cc3ccc(C(=O)O)cc3)NC(=O)[C@H](Cc3ccncc3)NC(=O)CSC[C@@H](C(=O)N[C@@H](C)C(N)=O)NC(=O)[C@H]([C@@H](C)O)NC(=O)[C@H](C(C)C)NC(=O)[C@H](CC3CCCCC3)NC(=O)[C@H](CCN)NC(=O)[C@@H](CC(C)C)NC(=O)[C@H](CCCN)NC(=O)[C@H](C(C)C)NC(=O)[C@H](Cc3ccc(-c4ccccc4)cc3)NC(=O)[C@H](C(C)C)NC2=O)c1 [Compound 1194],0.0047 µM
5,Cc1cccc(C[C@@H]2NC(=O)[C@H](CC(=O)O)NC(=O)[C@H](Cc3ccncc3)NC(=O)[C@H](CN)NC(=O)CSC[C@@H](C(=O)N[C@@H](C)C(N)=O)NC(=O)[C@H]([C@@H](C)O)NC(=O)[C@H](C(C)C)NC(=O)[C@H](CC3CCCCC3)NC(=O)[C@H](Cc3cnc[nH]3)NC(=O)[C@@H](CC(C)C)NC(=O)[C@H](CCCN)NC(=O)[C@H](C(C)C)NC(=O)[C@H](Cc3ccc(-c4ccccc4)cc3)NC(=O)[C@H](C(C)C)NC2=O)c1 [Compound 1583],0.02 µM
6,CC(C)C[C@H]1NC(=O)[C@H](CCCN)NC(=O)[C@H](CCCNC(N)=O)NC(=O)[C@H](Cc2ccc(-c3ccccc3)cc2)NC(=O)[C@H](c2ccccc2)NC(=O)[C@H](Cc2c[nH]c3ccccc23)NC(=O)[C@H](CC(=O)O)NC(=O)[C@H](Cc2ccc(OCC(=O)O)cc2)NC(=O)[C@H](CN)NC(=O)CSC[C@@H](C(=O)N[C@@H](C)C(N)=O)NC(=O)[C@H]([C@@H](C)O)NC(=O)[C@H](C(C)C)NC(=O)[C@H](CC2CCCCC2)NC(=O)[C@H](CCN)NC1=O [Compound 1359] ({CH2CO}-[Dap]Y(Carboxymethyl)DW[Phg][Bip][Cit][Orn][dL][Dab][Cha]VTCA-NH2; thioether N-14),0.0079 µM
7,CC(C)C[C@@H]1NC(=O)[C@H](Cc2c[nH]c3ccccc23)NC(=O)[C@H](CC(=O)O)NC(=O)[C@H](Cc2ccc(O)cc2)NC(=O)[C@H](Cc2ccccc2)NC(=O)CSC[C@@H](C(=O)NCC(N)=O)NC(=O)[C@H]([C@@H](C)O)NC(=O)[C@H](C(C)C)NC(=O)[C@H](CC(C)C)NC(=O)[C@H](CCN)NC(=O)[C@@H](CC(C)C)NC(=O)[C@H](CCCN)NC(=O)[C@H](C(C)C)NC(=O)[C@H](Cc2ccc(-c3ccccc3)cc2)NC1=O [Compound 1068] ({CH2CO}-FYDWL[Bip]V[Orn][dL][Dab]LVTCG-NH2; thioether N-14),0.0174 µM

# Source: patent publication US20250163104A1, “MACROCYCLIC IMMUNOMODULATORS” (priority 2021, published 2025)
